Measurements reported in paper PMC9930359, “Cytotoxicity of the methanol extracts and compounds of Brucea antidysenterica (Simaroubaceae) towards multifactorial drug-resistant human cancer cell lines” (BMC Complementary Medicine and Therapies, 2023).

Legend:
HCT116 p53+/+ cells = assay: Resazurin reduction assay (RRA), cytotoxicity; assay type: cell-based; settings: Homo sapiens, HCT-116, 72 h
Source text: (§1) In this work, 9 cancer cell lines with various drug resistance patterns as well as AML12 hepatocytes as normal control cell line were used. […] The AML12 hepatocytes were used for the comparison of the activities of the samples with HepG2 [40]. […] The RPMI-1640 medium was used for the culture of CCRF-CEM and CEM/ADR5000 cells whilst DMEM medium was used for carcinoma cells. The culture media were supplemented (complete medium) with 10% fetal bovine serum and 1% penicillin/streptomycin (Invitrogen, Eggenstein, Germany). […] To maintain the resistance phenotype of the resistant carcinoma cell lines such as MDA-MB-231/BCRP and HCT116 p53^−/−, and U87MG.ΔEGFR cells, the complete DMEM medium containing geneticin at 800 ng/ml and 400 µg/ml, respectively were used [41, 42].
(§2) Cells were cultured in a standard condition consisted of a humidified 5% CO2 atmosphere and an incubation temperature of 37 °C. The tested concentration ranges were 0.63—80 µg/mL for the botanicals and 0.78—100 µM for phytochemicals. The incubation time of the treated cells was 72 h, and the fluorescence was measured with Infinite M2000 Pro™ plate reader (Tecan, Crailsheim, Germany). The wavelengths used were 544 nm for the excitation and 590 nm for the emission. […] The degree of resistance (D.R.) was set as the ratio of the IC50 values of samples in the resistant cell line vs that of corresponding sensitive cell line. The selectivity index (S.I.) was the ratio of the IC50 value of AML12 hepatocytes vs. that of HepG2 cells [13, 48].

CEM/ADR5000 cells = assay: Resazurin reduction assay (RRA), cytotoxicity; assay type: cell-based, human; settings: for IC50: Homo sapiens, CEM/ADR5000, 72 h; for Degree of resistance (D.R.): ratio of IC50 CEM/ADR5000 vs CCRF-CEM
Procedure: (§3) The RPMI-1640 medium was used for the culture of CCRF-CEM and CEM/ADR5000 cells whilst DMEM medium was used for carcinoma cells. The culture media were supplemented (complete medium) with 10% fetal bovine serum and 1% penicillin/streptomycin (Invitrogen, Eggenstein, Germany). […] To maintain the resistance phenotype of the resistant carcinoma cell lines such as MDA-MB-231/BCRP and HCT116 p53^−/−, and U87MG.ΔEGFR cells, the complete DMEM medium containing geneticin at 800 ng/ml and 400 µg/ml, respectively were used [41, 42].
as §2

HCT116 p53−/− cells = assay: Resazurin reduction assay (RRA), cytotoxicity; assay type: cell-based, human; settings: for IC50: Homo sapiens, HCT-116, HCT116 p53−/−, 72 h; for Degree of resistance (D.R.): ratio of IC50 HCT116 p53−/− vs HCT116 p53+/+
Procedure: as §3, §2

AML12 hepatocytes = assay: Resazurin reduction assay (RRA), cytotoxicity on normal hepatocytes; assay type: cell-based; settings: for IC50: Mus musculus, AML12 normal hepatocytes, 72 h; for Selectivity index (S.I.): ratio of IC50 in AML12 vs IC50 in HepG2 cells
Procedure: as §3, §2

MDA-MB-231-BCRP cells = assay: Resazurin reduction assay (RRA), cytotoxicity; settings: Homo sapiens, MDA-MB-231/BCRP, 72 h
Procedure: as §3, §2

HepG2 cells = assay: Resazurin reduction assay (RRA), cytotoxicity; assay type: cell-based; settings: Homo sapiens, HepG2, 72 h
Source text: as §1, §2

U87MG.ΔEGFR cells = assay: Resazurin reduction assay (RRA), cytotoxicity; assay type: cell-based, human; settings: for IC50: Homo sapiens, U87MG.ΔEGFR, 72 h; for Degree of resistance (D.R.): ratio of IC50 U87.MGΔEGFR vs U87.MG
Procedure: as §3, §2

MDA-MB-231-pcDNA cells = assay: Resazurin reduction assay (RRA), cytotoxicity; assay type: cell-based; settings: Homo sapiens, 72 h
Source text: as §1, §2

CCRF-CEM leukemia cells = assay: Resazurin reduction assay (RRA), cytotoxicity; assay type: cell-based; settings: Homo sapiens, 72 h
U87MG cells = assay: Resazurin reduction assay (RRA), cytotoxicity; assay type: cell-based; settings: Homo sapiens, U-87 MG, 72 h
Source text: as §1, §2

SMILES	IC50 (HCT116 p53+/+ cells) [µM]	IC50 (CEM/ADR5000 cells) [µM]	Degree of resistance (D.R.) (CEM/ADR5000 cells)	IC50 (HCT116 p53−/− cells) [µM]	Degree of resistance (D.R.) (HCT116 p53−/− cells)	IC50 (AML12 hepatocytes) [µM]	Selectivity index (S.I.) (AML12 hepatocytes)	IC50 (MDA-MB-231-BCRP cells) [µM]	IC50 (HepG2 cells) [µM]	IC50 (U87MG.ΔEGFR cells) [µM]	IC50 (MDA-MB-231-pcDNA cells) [µM]	IC50 (CCRF-CEM leukemia cells) [µM]	IC50 (U87MG cells) [µM]	melting point [°C]	Degree of resistance (D.R.) (U87MG.ΔEGFR cells)
C[C@@H](O)C1CCC2C3CC=C4C[C@@H](O[C@@H]5OC[C@H](O)[C@H](O)[C@H]5O)CC[C@]4(C)C3CC[C@@]21C (stereo partly drawn) [Compound 3, (20R)-O-(3)-α-L-arabinopyranosyl-pregn-5-en-3β,20-diol]	> 100	73.9 ± 5.32	2.60	50.5 ± 3.81	< 0.50	> 100	> 1.17	> 100	85.2 ± 5.7	> 100	> 100	28.4 ± 1.76	> 100	258 to 260	
C[C@@H](O)C1CCC2C3CC=C4C[C@@H](O[C@@H]5OC[C@H](O)[C@H](O)[C@H]5O[C@@H]5O[C@H](CO)[C@@H](O)[C@H](O)[C@H]5O)CC[C@]4(C)C3CC[C@@]21C (stereo partly drawn) [Compound 4, (20R)-O-(3)-β-D-glucopyranosyl(1 → 2)-α-L-arabinopyranosyl-pregn-5-en-3β,20-diol]	> 100	> 100	> 3.13	32.2 ± 2.37	< 0.32	> 100	> 3.21	> 100	31.2 ± 2.11	28.3 ± 1.66	> 100	32 ± 2.16	28.3 ± 2.08	258 to 260	1.00
O=c1ccc2nccc3c4ccccc4n1c23 [Compound 5, canthin-6-one]	24.7 ± 2.16	> 100	> 2.26	21 ± 1.72	0.85	> 100	> 3.83	> 100	26.1 ± 1.63	21.1 ± 1.49	> 100	44.2 ± 3.52	19.6 ± 1.55		1.08
